The results in this text go back to ChEMBL document CHEMBL4184145, “Synthesis and structure-activity relationship of teixobactin analogues via convergent Ser ligation” (2017).

In brackets after ≈: the same amount, converted by molar mass.

Assay [1] deals with Staphylococcus aureus. As to the kind of experiment: Antibacterial activity against methicillin-susceptible Staphylococcus aureus ATCC 29213 by broth dilution assay. The format is functional.
Assay [2] concerns Staphylococcus aureus. As to the kind of experiment: Antibacterial activity against methicillin-resistant Staphylococcus aureus clinical isolate SA86 by broth dilution assay. The format is functional.

On to `CC[C@@H](C)[C@@H](NC(=O)[C@@H](CCC(N)=O)NC(=O)[C@H](CO)NC(=O)[C@@H](NC(=O)[C@@H](Cc1ccccc1)NC)[C@@H](C)CC)C(=O)N[C@H](C(=O)N[C@@H](CO)C(=O)N[C@H]1C(=O)N[C@@H](C)C(=O)N[C@@H](CCCN)C(=O)N[C@@H]([C@@H](C)CC)C(=O)O[C@H]1C)[C@@H](C)CC`, for which the MIC against Staphylococcus aureus [1] and in the assay with Staphylococcus aureus [2] was 2 µg/mL (≈ 1.66 µM) throughout.
For the compound `CC[C@@H](C)[C@@H](NC(=O)[C@@H](CC(N)=O)NC(=O)[C@H](CO)NC(=O)[C@@H](NC(=O)[C@@H](Cc1ccccc1)NC)[C@@H](C)CC)C(=O)N[C@H](C(=O)N[C@@H](CO)C(=O)N[C@H]1C(=O)N[C@@H](C)C(=O)N[C@@H](CCCN)C(=O)N[C@@H]([C@@H](C)CC)C(=O)O[C@H]1C)[C@@H](C)CC`, the MIC with Staphylococcus aureus [1] and against Staphylococcus aureus [2] was 4 µg/mL (≈ 3.37 µM) throughout.
For `CC[C@@H](C)[C@@H](NC(=O)[C@@H](CCC(N)=O)NC(=O)[C@H](CCCCN)NC(=O)[C@@H](NC(=O)[C@@H](Cc1ccccc1)NC)[C@@H](C)CC)C(=O)N[C@H](C(=O)N[C@@H](CO)C(=O)N[C@H]1C(=O)N[C@@H](C)C(=O)N[C@@H](CCCN)C(=O)N[C@@H]([C@@H](C)CC)C(=O)O[C@H]1C)[C@@H](C)CC`, the MIC turned out to be 4 µg/mL (≈ 3.22 µM) against Staphylococcus aureus [1] and 8 µg/mL (≈ 6.43 µM) with Staphylococcus aureus [2].
As for `CC[C@@H](C)[C@@H](NC(=O)[C@@H](CCC(N)=O)NC(=O)[C@H](CO)NC(=O)[C@@H](NC(=O)[C@@H](Cc1ccccc1)NC)[C@@H](C)O)C(=O)N[C@H](C(=O)N[C@@H](CO)C(=O)N[C@H]1C(=O)N[C@@H](C)C(=O)N[C@@H](CCCN)C(=O)N[C@@H]([C@@H](C)CC)C(=O)O[C@H]1C)[C@@H](C)CC`, the minimum inhibitory concentration (MIC) in the assay with Staphylococcus aureus [1] and in the assay on Staphylococcus aureus [2] was at least 32 µg/mL throughout.
With `CC[C@@H](C)[C@@H](NC(=O)[C@@H](CCC(N)=O)NC(=O)[C@H](CO)NC(=O)[C@@H](NC(=O)[C@@H](Cc1ccccc1)NC)C(C)C)C(=O)N[C@H](C(=O)N[C@@H](CO)C(=O)N[C@H]1C(=O)N[C@@H](C)C(=O)N[C@@H](CCCN)C(=O)N[C@@H]([C@@H](C)CC)C(=O)O[C@H]1C)[C@@H](C)CC`, the values for the MIC with Staphylococcus aureus [1] and in the assay on Staphylococcus aureus [2] were 8 µg/mL (≈ 6.73 µM) and 8 to 16 µg/mL (≈ 6.73 to 13.5 µM), respectively.
On to `CC[C@@H](C)[C@@H](NC(=O)[C@@H](CCC(N)=O)NC(=O)[C@H](CO)NC(=O)[C@@H](NC(=O)[C@@H](C)NC)[C@@H](C)CC)C(=O)N[C@H](C(=O)N[C@@H](CO)C(=O)N[C@H]1C(=O)N[C@@H](C)C(=O)N[C@@H](CCCN)C(=O)N[C@@H]([C@@H](C)CC)C(=O)O[C@H]1C)[C@@H](C)CC`, for which the MIC with Staphylococcus aureus [1] and against Staphylococcus aureus [2] was at least 32 µg/mL each time.
On to `CC[C@H](C)[C@H](NC(=O)[C@@H](C)NC(=O)[C@@H](CCC(N)=O)NC(=O)[C@H](CO)NC(=O)[C@@H](NC(=O)[C@@H](Cc1ccccc1)NC)[C@@H](C)CC)C(=O)N[C@@H](CO)C(=O)N[C@H]1C(=O)N[C@@H](C)C(=O)N[C@@H](CCCN)C(=O)N[C@@H]([C@@H](C)CC)C(=O)O[C@H]1C`, for which the MIC in the assay with Staphylococcus aureus [1] and against Staphylococcus aureus [2] was at least 32 µg/mL throughout.
Consider `CC[C@@H](C)[C@@H](NC(=O)[C@@H](CCC(N)=O)NC(=O)[C@H](CO)NC(=O)[C@@H](NC(=O)[C@H](Cc1ccccc1)NC)[C@@H](C)CC)C(=O)N[C@H](C(=O)N[C@@H](CO)C(=O)N[C@H]1C(=O)N[C@@H](C)C(=O)N[C@@H](CCCN)C(=O)N[C@@H]([C@@H](C)CC)C(=O)O[C@H]1C)[C@@H](C)CC`, for which the minimal inhibitory concentration (MIC) in the assay on Staphylococcus aureus [1] and against Staphylococcus aureus [2] was at least 32 µg/mL in each case.
With `CC[C@@H](C)[C@@H](NC(=O)[C@H](CCC(N)=O)NC(=O)[C@H](CO)NC(=O)[C@@H](NC(=O)[C@@H](Cc1ccccc1)NC)[C@@H](C)CC)C(=O)N[C@H](C(=O)N[C@@H](CO)C(=O)N[C@H]1C(=O)N[C@@H](C)C(=O)N[C@@H](CCCN)C(=O)N[C@@H]([C@@H](C)CC)C(=O)O[C@H]1C)[C@@H](C)CC`, the minimal inhibitory concentration (MIC) with Staphylococcus aureus [1] and in the assay with Staphylococcus aureus [2] was at least 32 µg/mL in each case.
For `CC[C@@H](C)[C@@H](NC(=O)[C@@H](CCC(N)=O)NC(=O)[C@H](CO)NC(=O)[C@@H](NC(=O)[C@@H](Cc1ccccc1)NC)[C@@H](C)CC)C(=O)N[C@@H](Cc1ccccc1)C(=O)N[C@@H](CO)C(=O)N[C@H]1C(=O)N[C@@H](C)C(=O)N[C@@H](CCCN)C(=O)N[C@@H]([C@@H](C)CC)C(=O)O[C@H]1C`, the minimal inhibitory concentration (MIC) with Staphylococcus aureus [1] and in the assay on Staphylococcus aureus [2] was at least 32 µg/mL in each case.
As for `CC[C@@H](C)[C@@H](NC(=O)[C@@H](CCC(N)=O)NC(=O)[C@H](C)NC(=O)[C@@H](NC(=O)[C@@H](Cc1ccccc1)NC)[C@@H](C)CC)C(=O)N[C@H](C(=O)N[C@@H](CO)C(=O)N[C@H]1C(=O)N[C@@H](C)C(=O)N[C@@H](CCCN)C(=O)N[C@@H]([C@@H](C)CC)C(=O)O[C@H]1C)[C@@H](C)CC`, the MIC in the assay with Staphylococcus aureus [1] and with Staphylococcus aureus [2] was 4 µg/mL (≈ 3.37 µM) each time.
In the case of `CC[C@@H](C)[C@@H](NC(=O)[C@@H](CCC(N)=O)NC(=O)[C@H](CO)NC(=O)[C@@H](NC(=O)[C@@H](Cc1ccccc1)NC)[C@@H](C)CC)C(=O)N[C@H](C(=O)N[C@@H](CO)C(=O)N[C@H]1C(=O)NCC(=O)N[C@@H](CCCN)C(=O)N[C@@H]([C@@H](C)CC)C(=O)O[C@H]1C)[C@@H](C)CC`, the MIC against Staphylococcus aureus [1] and against Staphylococcus aureus [2] was at least 32 µg/mL each time.
With `CC[C@@H](C)[C@@H](NC(=O)[C@@H](CCC(N)=O)NC(=O)[C@H](CO)NC(=O)[C@H](NC(=O)[C@@H](Cc1ccccc1)NC)[C@@H](C)CC)C(=O)N[C@H](C(=O)N[C@@H](CO)C(=O)N[C@H]1C(=O)N[C@@H](C)C(=O)N[C@@H](CCCN)C(=O)N[C@@H]([C@@H](C)CC)C(=O)O[C@H]1C)[C@@H](C)CC`, the MIC in the assay on Staphylococcus aureus [1] and against Staphylococcus aureus [2] was at least 32 µg/mL in each case.
`CC[C@H](C)[C@H](NC(=O)[C@@H](Cc1ccccc1)NC)C(=O)N[C@@H](CO)C(=O)N[C@H](CCC(N)=O)C(=O)N[C@@H](C(=O)N[C@H](C(=O)N[C@@H](CO)C(=O)N[C@H]1C(=O)N[C@@H](C)C(=O)N[C@@H](CCCN)C(=O)N[C@@H]([C@@H](C)CC)C(=O)O[C@H]1C)[C@@H](C)CC)C(C)C`: the minimal inhibitory concentration (MIC) in the assay with Staphylococcus aureus [1] was 8 to 16 µg/mL (≈ 6.73 to 13.5 µM); against Staphylococcus aureus [2] it was 16 µg/mL (≈ 13.5 µM).
As for `CC[C@@H](C)[C@@H](NC(=O)[C@@H](CCC(N)=O)NC(=O)[C@H](CO)NC(=O)[C@@H](NC(=O)[C@H](N)Cc1ccccc1)[C@@H](C)CC)C(=O)N[C@H](C(=O)N[C@@H](CO)C(=O)N[C@H]1C(=O)N[C@@H](C)C(=O)N[C@@H](CCCN)C(=O)N[C@@H]([C@@H](C)CC)C(=O)O[C@H]1C)[C@@H](C)CC`, the MIC in the assay on Staphylococcus aureus [1] and with Staphylococcus aureus [2] was 16 µg/mL (≈ 13.5 µM) in each case.
`CC[C@@H](C)[C@@H](NC(=O)[C@@H](CCC(N)=O)NC(=O)[C@H](CO)NC(=O)[C@@H](NC(=O)[C@@H](Cc1ccccc1)NC)[C@@H](C)CC)C(=O)N[C@@H](CC(C)C)C(=O)N[C@@H](CO)C(=O)N[C@H]1C(=O)N[C@@H](C)C(=O)N[C@@H](CCCN)C(=O)N[C@@H]([C@@H](C)CC)C(=O)O[C@H]1C`: the MIC in the assay with Staphylococcus aureus [1] and in the assay with Staphylococcus aureus [2] was at least 32 µg/mL throughout.
For the compound `CC[C@@H](C)[C@@H](NC(=O)[C@@H](CCC(N)=O)NC(=O)[C@H](CO)NC(=O)[C@@H](NC(=O)[C@@H](Cc1ccccc1)NC)[C@@H](C)CC)C(=O)N[C@@H](C)C(=O)N[C@@H](CO)C(=O)N[C@H]1C(=O)N[C@@H](C)C(=O)N[C@@H](CCCN)C(=O)N[C@@H]([C@@H](C)CC)C(=O)O[C@H]1C`, the MIC in the assay with Staphylococcus aureus [1] and against Staphylococcus aureus [2] was at least 32 µg/mL throughout.
`CC[C@@H](C)[C@@H](NC(=O)[C@@H](CCC(N)=O)NC(=O)[C@H](CO)NC(=O)[C@@H](NC(=O)[C@@H](Cc1ccccc1)NC)[C@@H](C)CC)C(=O)N[C@H](C(=O)N[C@@H](CO)C(=O)N[C@H]1C(=O)N[C@H](C)C(=O)N[C@@H](CCCN)C(=O)N[C@@H]([C@@H](C)CC)C(=O)O[C@H]1C)[C@@H](C)CC`: the minimum inhibitory concentration (MIC) against Staphylococcus aureus [1] and with Staphylococcus aureus [2] was at least 32 µg/mL throughout.
Turning to `CC[C@@H](C)[C@@H](NC(=O)[C@@H](CCC(N)=O)NC(=O)[C@H](CC(N)=O)NC(=O)[C@@H](NC(=O)[C@@H](Cc1ccccc1)NC)[C@@H](C)CC)C(=O)N[C@H](C(=O)N[C@@H](CO)C(=O)N[C@H]1C(=O)N[C@@H](C)C(=O)N[C@@H](CCCN)C(=O)N[C@@H]([C@@H](C)CC)C(=O)O[C@H]1C)[C@@H](C)CC`, the values for the minimum inhibitory concentration (MIC) in the assay on Staphylococcus aureus [1] and in the assay with Staphylococcus aureus [2] were 16 µg/mL (≈ 13 µM) and at least 32 µg/mL, respectively.
Turning to `CC[C@@H](C)[C@@H](NC(=O)[C@@H](CCC(N)=O)NC(=O)[C@H](CO)NC(=O)[C@@H](NC(=O)[C@@H](Cc1ccccc1)NC)[C@@H](C)CC)C(=O)N[C@H](C(=O)N[C@@H](CO)C(=O)N[C@H]1C(=O)N[C@@H](C)C(=O)N[C@@H](CCCN)C(=O)N[C@@H]([C@@H](C)CC)C(=O)O[C@H]1C)C(C)C`, the MIC with Staphylococcus aureus [1] and against Staphylococcus aureus [2] was at least 32 µg/mL each time.
Turning to `CC[C@@H](C)[C@@H](NC(=O)[C@@H](CCC(N)=O)NC(=O)[C@H](CO)NC(=O)[C@H](Cc1ccccc1)NC(=O)[C@@H](Cc1ccccc1)NC)C(=O)N[C@H](C(=O)N[C@@H](CO)C(=O)N[C@H]1C(=O)N[C@@H](C)C(=O)N[C@@H](CCCN)C(=O)N[C@@H]([C@@H](C)CC)C(=O)O[C@H]1C)[C@@H](C)CC`, the MIC against Staphylococcus aureus [1] and in the assay with Staphylococcus aureus [2] was at least 32 µg/mL throughout.
In the case of `CC[C@@H](C)[C@@H](NC(=O)[C@@H](CCC(N)=O)NC(=O)[C@H](CO)NC(=O)[C@H](CC(C)C)NC(=O)[C@@H](Cc1ccccc1)NC)C(=O)N[C@H](C(=O)N[C@@H](CO)C(=O)N[C@H]1C(=O)N[C@@H](C)C(=O)N[C@@H](CCCN)C(=O)N[C@@H]([C@@H](C)CC)C(=O)O[C@H]1C)[C@@H](C)CC`, the MIC in the assay on Staphylococcus aureus [1] and against Staphylococcus aureus [2] was 4 to 8 µg/mL (≈ 3.33 to 6.65 µM) throughout.
For the compound `CC[C@@H](C)[C@@H](NC(=O)[C@@H](CCC(N)=O)NC(=O)[C@H](CO)NC(=O)[C@@H](NC(=O)[C@@H](Cc1ccccc1)NC)[C@@H](C)CC)C(=O)N[C@H](C(=O)N[C@@H](CO)C(=O)N[C@H]1C(=O)N[C@@H](C)C(=O)N[C@@H](CCNC(=N)N)C(=O)N[C@@H]([C@@H](C)CC)C(=O)O[C@H]1C)[C@@H](C)CC`, the MIC against Staphylococcus aureus [1] was 8 to 16 µg/mL (≈ 6.5 to 13 µM); in the assay with Staphylococcus aureus [2] it was 16 µg/mL (≈ 13 µM).
On to `CC[C@@H](C)[C@@H](NC(=O)[C@@H](CCC(N)=O)NC(=O)[C@H](CO)NC(=O)[C@H](C)NC(=O)[C@@H](Cc1ccccc1)NC)C(=O)N[C@H](C(=O)N[C@@H](CO)C(=O)N[C@H]1C(=O)N[C@@H](C)C(=O)N[C@@H](CCCN)C(=O)N[C@@H]([C@@H](C)CC)C(=O)O[C@H]1C)[C@@H](C)CC`, for which the minimal inhibitory concentration (MIC) in the assay on Staphylococcus aureus [1] and in the assay with Staphylococcus aureus [2] was at least 32 µg/mL each time.
